Source: patent US9394299B2, “Rilyazine derivatives and compositions for the treatment of cancer” (Warner Babcock Institute for Green Chemistry, LLC, priority 2013, dated 2016)

Experiments:
COLO 205 (Colon Cancer) = test: NCI five point dosing, COLO 205; format: cell-based; conditions: Homo sapiens, read-out: LC50 (the source's name)
Description: RL-4 was evaluated against the 60 cell panel at five concentration levels, 10^−8 M, 10^−7 M, 10^−6 M, 10^−5 M and 10^−4 M.
(§1) The human tumor cell lines of the cancer screening panel are grown in RPMI 1640 medium containing 5% fetal bovine serum and 2 mM L-glutamine. Cells are inoculated into 96 well microtiter plates in 100 μL at plating densities ranging from 5,000 to 40,000 cells/well depending on the doubling time of individual cell lines. After cell inoculation, the microtiter plates are incubated at 37° C., 5% CO2, 95% air and 100% relative humidity for 24 h prior to addition of experimental drugs. […]
(§2) Following drug addition, the plates are incubated for an additional 48 h at 37° C., 5% CO2, 95% air, and 100% relative humidity. […] Bound stain is subsequently solubilized with 10 mM trizma base, and the absorbance is read on an automated plate reader at a wavelength of 515 nm. […]
The percentage growth is calculated at each of the five drug concentrations levels using the seven absorbance measurements, namely absorbance at time zero (Tz), absorbance of control after incubation (C), and absorbance of test sample after incubation in the presence of drug at each of the five concentration levels (Ti). The Growth Percent is calculated as it was for the 1 dose assay: Growth Percent=[(Ti−Tz)/(C−Tz)]×100 for cell line/drug combinations for which Ti≧Tz. […]

MCF-7 cells = test: MTT cell proliferation assay, MCF-7; format: cell-based; conditions: 72 h-exposure, 30-0.041 μM
Description: In vitro characterizing of the effects of rilyazine analogs on cell proliferation and apoptosis in the paired epithelial/mesenchymal lines (Colo205/Colo-R, DLD/DLD-SNAIL and MCF7/MCF7-WISP) was performed in an independent laboratory.
The Dose Preparation is based on a reconstitute in DMSO. The Concentration of the stock solution is 100 mM. Storage of the stock solution is under −80° C.
Working drug solution of rilyazine analogs: A stock solution of 100 mM OTX015 in DMSO was prepared and stored at −80° C. For growth inhibition studies, dilution series were prepared by (1) diluting stock solution into DMSO, then (2) diluting 1:300 in culture medium supplemented with 10% FBS giving a final concentration in 0.3% DMSO in the 96-well plates.
Cell lines. Cells lines were maintained in RPMI 1640 (PAA Laboratories, France) supplemented with 10% fetal bovine serum (FBS; PAA Laboratories, France), 2 mM glutamine (PAA Laboratories, France), 100 units/ml penicillin and 100 μg/ml streptomycin (PAA Laboratories, France). Cells were free of Mycoplasma.
Proliferation assays. Cell proliferation was determined using the MTT assay (3-[4,5-dimethylthiazol-2-yl]-2,5-diphenyltetrazolium bromide; Sigma-Aldrich, St. Louis, Mo.). […] After incubation, the supernatant was discarded, the cell pellet was resuspended in 0.1 mL DMSO, and the absorbance was measured at 560 nm using a microplate reader (Thermo, France). […]

MDA-MB-231/ATCC (Breast) = test: NCI single point 10 μM, MDA-MB-231/ATCC; format: cell-based, human; conditions: 10^−5 M
Description: The screening is a two-stage process, beginning with the evaluation of all compounds against 60 cell lines at a single dose of 10^−5 M.
as §1, §2
For the 1-dose 60 cell testing, the Growth Percent is calculated for each cell line/drug combination from the absorbance measurement for the no-drug control (C), the absorbance at time zero (Tz) and the absorbance measurement after incubation of the cells in the presence of drug (Ti): Growth Percent=[(Ti−Tz)/(C−Tz)]×100 for cell line/drug combinations for which Ti≧Tz. […]

S=c1c2ncccc2c(-c2ccccn2)nn1C1CCCCC1 [RL-4, 7-cyclohexyl-5-(pyridin-2-yl)pyrido[2,3-d]pyridazine-8(7H)-thione]
CC50 (COLO 205 (Colon Cancer)): 85.8 µM
anti-proliferative effects (in words) (MCF-7 cells): dose-dependent anti-proliferative effects
Growth Percent (MDA-MB-231/ATCC (Breast)): 129.23%
